In brackets after ≈: the same amount, converted by molar mass. Bounds are passed on as bounds.

What is called MIC is the lowest concentration that inhibits growth of the organism. For orientation: MIC90 means the lowest concentration that inhibits either 90% of growth or 90% of the strains tested, depending on the study. A higher MIC90 goes with weaker potency. A word on the MIC99: it is an inhibitory concentration at the 99% level, which refers to growth in some studies and to a panel of isolates in others. As a reminder, the MIC50 is an inhibitory concentration at the 50% level, which refers to growth in some studies and to a panel of isolates in others. A high value points to lower susceptibility.

In one assay the test system is Mycobacterium tuberculosis. The assay is described as follows: Antimycobacterial activity against Mycobacterium tuberculosis H37Rv. The format is functional.
In turn, `O=[N+]([O-])c1ccc(F)c(-c2nnc(S)o2)c1` gave an MIC greater than 25 µg/mL.

The compound `FC(F)(F)c1ccc(-c2nnc(S)o2)cc1` gave an MIC greater than 25 µg/mL. The same measure, in the same setting: under `COC(=O)c1c(NC(=O)c2c(F)c(F)c(F)c(F)c2F)sc2c1CCC2` stands 2.1 µg/mL (≈ 5.37 µM); under `Oc1ccc(-c2nnc(S)[nH]2)cc1O`, 10.5 µg/mL (≈ 50.2 µM). Still for that read-out and setting: as for `NOC(=O)c1c(NC(=O)c2c(F)c(F)c(F)c(F)c2F)sc2c1CCCCC2`, the figure is 15.3 µg/mL (≈ 36.4 µM).

In the case of `COc1ccc(-c2nnc(S)o2)cc1`, the MIC came out at 20.8 µg/mL (≈ 99.9 µM).

As to `CC(=O)N1N=C(c2ccc3oc(-c4ccncc4)nc3c2)CC1c1cccs1` (stereo not drawn), the MIC is 25 µg/mL (≈ 64.4 µM). Turning to `CC(=O)N1/C(=C/c2cccc(-c3ccc(OC(F)(F)F)cc3)c2)C(=O)c2ccccc21`, the MIC90 is greater than 20 µM and the MIC99 is greater than 20 µM. The compound `CC(=O)N1N=C(c2ccc3oc(NC(=O)c4ccccc4Cl)nc3c2)CC1c1cccs1` (stereo not drawn) came in with an MIC of 25 µg/mL (≈ 53.8 µM).

Compound `COc1ccc(-c2nc3cc(C4=NN(C(C)=O)C(c5cccs5)C4)ccc3o2)cc1` (stereo not drawn) came in with an MIC of 12.5 µg/mL (≈ 29.9 µM). Same read-out and setting: as for `CC(=O)N1N=C(c2ccc3oc(-c4cccnc4)nc3c2)CC1c1cccs1` (stereo not drawn), the figure is 25 µg/mL (≈ 64.4 µM).

As to `CC(=O)N1N=C(c2ccc3oc(NC(=O)C(C)C)nc3c2)CC1c1cccs1` (stereo not drawn), it took 25 µg/mL (≈ 63.1 µM) to inhibit growth (MIC). `CC(=O)N1/C(=C/c2ccc(-c3ccc(OC(F)(F)F)cc3)cc2)C(=O)c2cc(Cl)ccc21` yielded an MIC90 greater than 20 µM and an MIC99 greater than 20 µM. Compound `CC(=O)N1/C(=C/c2ccc(-c3ccc(C(F)(F)F)cc3)cc2)C(=O)c2ccccc21` had an MIC90 of 2.65 µM (≈ 1.08 µg/mL) and an MIC99 of 4.3 µM (≈ 1.75 µg/mL). The like results for `CC(=O)N1/C(=C/c2cccc(-c3ccc(C(F)(F)F)cc3)c2)C(=O)c2ccccc21` were, in that order, 11.6 µM (≈ 4.73 µg/mL) and 17.5 µM (≈ 7.13 µg/mL). In the case of `CC(=O)N1/C(=C/c2cccc(-c3ccsc3)c2)C(=O)c2ccccc21`, the MIC90 was determined as 3.19 µM (≈ 1.1 µg/mL) and the MIC99 turned out to be 3.34 µM (≈ 1.15 µg/mL). As for `CC(=O)N1/C(=C/c2cccc(-c3ccc(F)cc3)c2)C(=O)c2ccccc21`, the MIC90 amounted to 5.1 µM (≈ 1.82 µg/mL) and the MIC99 worked out at 5.66 µM (≈ 2.02 µg/mL). With `CC(=O)N1/C(=C/c2ccc(-c3cnc4ccccc4c3)cc2)C(=O)c2ccccc21`, the MIC90 is 0.649 µM (≈ 0.253 µg/mL) and the MIC99 was 0.736 µM (≈ 0.287 µg/mL). On to `NOC(=O)c1c(NC(=O)c2c(F)c(F)c(F)c(F)c2F)sc2c1CCC2`, for which the lowest concentration to inhibit growth (MIC) was 10.6 µg/mL (≈ 27 µM). Same read-out and setting: as for `COc1ccccc1C(=O)Nc1nc2cc(C3=NN(C(C)=O)C(c4cccs4)C3)ccc2o1` (stereo not drawn), the figure is 25 µg/mL (≈ 54.3 µM). `CCn1cc(C(=O)O)c(=O)c2cc(F)c(-n3cccc3)cc21` [IRLOXACIN] came in with an MIC50 of 8 µg/mL (≈ 26.6 µM).

Another assay relates to Mycobacterium tuberculosis. In words: Antimycobacterial activity against Mycobacterium tuberculosis H37Rv assessed as inhibition of bacterial growth by resazurin dye based fluorescence analysis. It counts as functional. Background: Resazurin is reduced to fluorescent resorufin, in cell work by metabolically active cells.
Turning to `CCNS(=O)(=O)c1ccc(-c2nnn(Cc3ccncc3)n2)cc1`, the MIC stood at 0.1 µM (≈ 0.0344 µg/mL). As for `C[C@@H](O)CNS(=O)(=O)c1ccc(-c2nnn(Cc3ccc(F)cn3)n2)cc1`, the MIC was found to be 0.1 µM (≈ 0.0392 µg/mL). The same measure, in the same setting: as for `CNS(=O)(=O)c1ccc(-c2nnn(Cc3ccc(F)cc3)n2)cc1`, the figure is 0.1 µM (≈ 0.0347 µg/mL); as for `O=S(=O)(NCC(O)CO)c1ccc(-c2nnn(Cc3ccc(F)cc3)n2)cc1` (stereo not drawn), 0.1 µM (≈ 0.0407 µg/mL). Regarding `O=S(=O)(NCCO)c1ccc(-c2nnn(CC3CCCCO3)n2)cc1` (stereo not drawn), the MIC came to 0.1 µM (≈ 0.0367 µg/mL). The same measure, in the same setting: under `O=S(=O)(NC(CO)CO)c1ccc(-c2nnn(Cc3ccc(F)cc3)n2)cc1` stands 0.1 µM (≈ 0.0407 µg/mL); under `O=S(=O)(NCCO)c1ccc(-c2nnn(Cc3ccc(F)cc3)n2)cc1`, 0.1 µM (≈ 0.0377 µg/mL); under `C[C@@H](O)CNS(=O)(=O)c1ccc(-c2nnn(Cc3ccc(F)cc3)n2)cc1`, 0.1 µM (≈ 0.0391 µg/mL). Same read-out and setting: as for `N#Cc1ccc(Cn2nnc(-c3ccc(S(=O)(=O)NCCO)cc3)n2)cc1`, the figure is 0.1 µM (≈ 0.0384 µg/mL). On the same count and under the same terms, as for `CCc1ccc(Cn2nnc(-c3ccc(S(=O)(=O)NCCO)cc3)n2)cc1`, the figure is 0.1 µM (≈ 0.0387 µg/mL); as for `N#Cc1ccc(Cn2nnc(-c3ccc(S(=O)(=O)NCCO)cc3)n2)nc1`, 0.1 µM (≈ 0.0385 µg/mL); as for `O=S(=O)(NCCO)c1ccc(-c2nnn(Cc3ccncn3)n2)cc1`, 0.1 µM (≈ 0.0361 µg/mL). On to `O=S(=O)(NCCO)c1ccc(-c2nnn(CC3CCC(F)(F)CC3)n2)cc1`, for which the MIC was 0.1 µM (≈ 0.0401 µg/mL).

Regarding `C[C@@H](O)CNS(=O)(=O)c1ccc(-c2nnn(Cc3ccncc3)n2)cc1`, the MIC is 0.1 µM (≈ 0.0374 µg/mL). With `O=S(=O)(NC(CO)CO)c1ccc(-c2nnn(Cc3ccncc3)n2)cc1`, the MIC turned out to be 0.1 µM (≈ 0.039 µg/mL). On the same count and under the same terms, as for `CNS(=O)(=O)c1ccc(-c2nnn(Cc3ccncc3)n2)cc1`, the figure is 0.1 µM (≈ 0.033 µg/mL); as for `Cc1nccc(Cn2nnc(-c3ccc(S(=O)(=O)NCCO)cc3)n2)n1`, 0.1 µM (≈ 0.0375 µg/mL); as for `O=S(=O)(NCCO)c1ccc(-c2nnn(Cc3ccc(C(F)F)cc3)n2)cc1`, 0.1 µM (≈ 0.0409 µg/mL).

Turning to `C[C@H](O)CNS(=O)(=O)c1ccc(-c2nnn(Cc3ccc(F)cc3)n2)cc1`, the MIC came out at 0.1 µM (≈ 0.0391 µg/mL).

With `O=S(=O)(NCCO)c1ccc(-c2nnn(Cc3ncc(F)cc3F)n2)cc1`, the MIC was determined as 0.1 µM (≈ 0.0396 µg/mL). The same measure, in the same setting: under `Cc1cccc(Cn2nnc(-c3ccc(S(=O)(=O)NCCO)cc3)n2)n1` stands 0.1 µM (≈ 0.0374 µg/mL); under `O=S(=O)(NCCO)c1ccc(-c2nnn(Cc3ccc(Cl)cc3)n2)cc1`, 0.1 µM (≈ 0.0394 µg/mL); under `O=S(=O)(NCCO)c1ccc(-c2nnn(Cc3ccc(Cl)cn3)n2)cc1`, 0.1 µM (≈ 0.0395 µg/mL).

As for `C[C@@H](O)CNS(=O)(=O)c1ccc(-c2nnn(CC3CCC(F)(F)CC3)n2)cc1`, the MIC is 0.1 µM (≈ 0.0415 µg/mL). Same read-out and setting: as for `COc1ccc(Cn2nnc(-c3ccc(S(=O)(=O)NCCO)cc3)n2)cc1`, the figure is 0.1 µM (≈ 0.0389 µg/mL).

(Values after ChEMBL document CHEMBL5244273, “Tuberculosis: An Overview of the Immunogenic Response, Disease Progression, and Medicinal Chemistry Efforts in the Last Decade toward the Development of Potential Drugs for Extensively Drug-Resistant Tuberculosis Strains” (J Med Chem, 2021).)
